According to patent US7244727B2, “Fused bicyclic nitrogen-containing heterocycles” (Japan Tobacco Inc., priority 2002, dated 2007):

Columns and labels:
[1] = molecular target: T1, human DGAT1 (Homo sapiens, UniProt O75907); assay: DGAT Scintillation Proximity Assay (SPA) with membranes of insect cells expressing human flagtag DGAT1; format: biochemical; conditions: read-out: hDGAT1 IC50
T1 construct: made in house; host or cells: insect cells (sf9, sf21 or High Five) infected with baculovirus; total cell membranes
T1 sequence (O75907 1-488): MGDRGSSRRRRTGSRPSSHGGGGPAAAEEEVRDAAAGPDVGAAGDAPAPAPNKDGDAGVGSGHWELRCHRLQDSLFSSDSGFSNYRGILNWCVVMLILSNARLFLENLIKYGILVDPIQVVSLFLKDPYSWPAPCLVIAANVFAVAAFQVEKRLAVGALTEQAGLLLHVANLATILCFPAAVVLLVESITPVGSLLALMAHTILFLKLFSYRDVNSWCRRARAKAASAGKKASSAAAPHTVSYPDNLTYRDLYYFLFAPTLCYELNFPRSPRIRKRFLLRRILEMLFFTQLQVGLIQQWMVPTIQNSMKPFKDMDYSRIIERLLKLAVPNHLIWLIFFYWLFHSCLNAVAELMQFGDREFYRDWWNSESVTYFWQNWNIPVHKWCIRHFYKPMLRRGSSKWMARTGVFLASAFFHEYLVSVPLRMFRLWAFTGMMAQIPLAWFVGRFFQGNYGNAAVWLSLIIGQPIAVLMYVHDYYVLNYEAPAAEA
In short: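 Membranes (0.2 μg/well) from insect cells expressing human flag-tagged DGAT1 incubated with 10 μM compound and 200 μM dioleoyl glycerol substrate; mercuric chloride as inhibition control. Reaction stopped with WGA SPA beads in mercuric chloride, overnight bead coupling, then scintillation proximity signal read.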

SMILES	IC50 [1] [nM]	melting point
Cc1nc(N)c2c(n1)OC(C)(C)C(c1ccc([C@H]3CC[C@H](CC(=O)N4CC(O)C(O)C4)CC3)cc1)=N2 (stereo partly drawn) [Example 2-136]	10 to 100	210 to 211 °C
Cc1nc(N)c2c(n1)OC(C)(C)C(c1ccc([C@H]3CC[C@H](CNC(=O)CO)CC3)cc1)=N2 [Example 2-138]	10 to 100	235 to 238 °C
Cc1nc(N)c2c(n1)OC(C)(C)C(c1ccc([C@H]3CC[C@H](CNC(=O)C(C)(C)CO)CC3)cc1)=N2 [Example 2-139]	10 to 100	249 to 250 °C
Cc1nc(N)c2c(n1)OC(C)(C)C(c1ccc([C@H]3CC[C@H](CNC(=O)CCO)CC3)cc1)=N2 [Example 2-140]	10 to 100	223 to 224 °C
Cc1nc(N)c2c(n1)OC(C)(C)C(c1ccc([C@H]3CC[C@H](CCNC(=O)C(C)(C)O)CC3)cc1)=N2 [Example 2-141]	10 to 100	221 to 223 °C
Cc1nc(N)c2c(n1)OC(C)(C)C(c1ccc([C@H]3CC[C@H](CC(=O)NCC(N)=O)CC3)cc1)=N2 [Example 2-142]	10 to 100	142 to 144 °C
Cc1nc(N)c2c(n1)OC(C)(C)C(c1ccc([C@H]3CC[C@H](CC(=O)N(C)CC(N)=O)CC3)cc1)=N2 [Example 2-144]	10 to 100	> 230 °C
Cc1nc(N)c2c(n1)OC(C)(C)C(c1ccc(C3CC(CC(=O)O)C3(C)C)cc1)=N2 (stereo not drawn) [Example 2-145]	10 to 100	> 250 °C
Cc1nc(N)c2c(n1)OC(C)(C)C(c1ccc(C3CC(CC(=O)O)C3)cc1)=N2 (stereo not drawn) [Example 2-146]	10 to 100	> 250 °C
Cc1nc(N)c2c(n1)OC(C)(C)C(c1ccc([C@H]3CC[C@H](Cc4n[nH]c(=O)[nH]4)CC3)cc1)=N2 [Example 2-147]	10 to 100	> 230 °C
Cc1nc(N)c2c(n1)OC(C)(C)C(c1ccc(C3CC(CCC(=O)O)C3)cc1)=N2 (stereo not drawn) [Example 2-149]	10 to 100	237 to 238 °C
Cc1nc(N)c2c(n1)OC(C)(C)C(c1ccc([C@H]3CC[C@H](CNC(=O)C(C)(C)O)CC3)cc1)=N2 [Example 2-150]	10 to 100	228 to 229 °C
Cc1nc(N)c2c(n1)OC(C)(C)C(c1ccc([C@H]3CC[C@H](Cc4nc(=O)s[nH]4)CC3)cc1)=N2 [Example 2-152]	10 to 100	225 to 226 °C
CC1(C)Oc2nc(C(F)(F)F)nc(N)c2N=C1c1ccc([C@H]2CC[C@H](CNC(=O)CO)CC2)cc1 [Example 2-154]	10 to 100	229 to 233 °C
CCn1c(C[C@H]2CC[C@H](c3ccc(C4=Nc5c(N)nc(C)nc5OC4(C)C)cc3)CC2)n[nH]c1=O [Example 2-156]	10 to 100	> 250 °C
Cc1nc(N)c2c(n1)OC(C)(C)C(c1ccc([C@H]3CC[C@H](CN4CCOC4=O)CC3)cc1)=N2 [Example 2-158]	10 to 100	240 to 241 °C
Cc1nc(N)c2c(n1)OC(C)(C)C(c1ccc([C@H]3CC[C@H](CN4CC(=O)NC4=O)CC3)cc1)=N2 [Example 2-159]	10 to 100	148 °C (dec.)
Cc1nc(N)c2c(n1)OC(C)(C)C(c1ccc([C@H]3CC[C@H](CCNC(=O)CO)CC3)cc1)=N2 [Example 2-160]	10 to 100	185 to 186 °C

Second part, the compound after the results:

IC50 [1] [nM]	melting point	SMILES
10 to 100	> 250 °C	CC1(C)Oc2ncnc(N)c2N=C1c1ccc([C@H]2CC[C@H](CN[C@H]3CC[C@H](O)CC3)CC2)cc1 [Example 2-116]
10 to 100	> 250 °C	CC1(C)Oc2nccc(N)c2N=C1c1ccc([C@H]2CC[C@H](CC(=O)O)CC2)cc1 [Example 2-117]
10 to 100	215 to 216 °C	Cc1ncc(C[C@H]2CC[C@H](c3ccc(C4=Nc5c(N)ncnc5OC4(C)C)cc3)CC2)s1 [Example 2-118]
10 to 100	> 250 °C	CC1(C)Oc2ncnc(N)c2N=C1c1ccc([C@H]2CC[C@H](Cc3cnc(C(C)(C)C)[nH]3)CC2)cc1 [Example 2-119]
10 to 100	226 to 227 °C	CC1(C)Oc2ncnc(N)c2N=C1c1ccc([C@H]2CC[C@H](Cc3cnc(C4CC4)[nH]3)CC2)cc1 [Example 2-120]
10 to 100	> 230 °C	CC1(C)Oc2ncnc(N)c2N=C1c1ccc([C@H]2CC[C@H](Cc3nc4cc(Cl)ccc4[nH]3)CC2)cc1 [Example 2-122]
10 to 100	230 to 231 °C	CC1(C)Oc2ncnc(N)c2N=C1c1ccc([C@H]2CC[C@H](Cc3cnc(-c4ccccc4)[nH]3)CC2)cc1 [Example 2-123]
10 to 100	> 230 °C	CC1(C)Oc2ncnc(N)c2N=C1c1ccc([C@H]2CC[C@H](Cc3nc4cc(F)ccc4[nH]3)CC2)cc1 [Example 2-124]
10 to 100	234 to 235 °C	CC1(C)Oc2ncnc(N)c2N=C1c1ccc([C@@H]2CCC[C@H](CC(=O)O)C2)cc1 [Example 2-126]
10 to 100	228 to 230 °C	Cc1csc(NC[C@H]2CC[C@H](c3ccc(C4=Nc5c(N)ncnc5OC4(C)C)cc3)CC2)n1 [Example 2-127]
10 to 100	253 to 254 °C	CC(=O)NC[C@H]1CC[C@H](c2ccc(C3=Nc4c(N)ncnc4OC3(C)C)cc2)CC1 [Example 2-128]
10 to 100	206 to 207 °C	Cc1ccc(S(=O)(=O)NC[C@H]2CC[C@H](c3ccc(C4=Nc5c(N)ncnc5OC4(C)C)cc3)CC2)cc1 [Example 2-129]
10 to 100	226 to 227 °C	CC1(C)Oc2ncnc(N)c2N=C1c1ccc([C@H]2CC[C@H](CNS(N)(=O)=O)CC2)cc1 [Example 2-130]
10 to 100	230 to 231 °C	CC1(C)Oc2ncnc(N)c2N=C1c1ccc([C@H]2CC[C@H](CNC(=O)[C@@H]3CCCN3)CC2)cc1 [Example 2-131]
10 to 100	217 to 218 °C	CC1(C)Oc2ncnc(N)c2N=C1c1ccc([C@H]2CC[C@H](CNC(=O)[C@@H]3C[C@@H](O)CN3)CC2)cc1 [Example 2-132]
< 10	225 to 226 °C	Cc1nc(N)c2c(n1)OC(C)(C)C(c1ccc([C@H]3CC[C@H](CC(=O)NS(C)(=O)=O)CC3)cc1)=N2 [Example 2-134]
10 to 100	229 to 230 °C	Cc1nc(N)c2c(n1)OC(C)(C)C(c1ccc([C@H]3CC[C@H](CC(=O)NC(C)(C)CO)CC3)cc1)=N2 [Example 2-135]
< 10	> 250 °C	Cc1nc(N)c2c(n1)OC(C)(C)C(c1ccc([C@H]3CC[C@H](Cc4nn[nH]n4)CC3)cc1)=N2 [Example 2-137]
< 10	196 to 198 °C	Cc1nc(N)c2c(n1)OC(C)(C)C(c1ccc([C@H]3CC[C@H](CC(=O)N(C)CC(=O)O)CC3)cc1)=N2 [Example 2-143]
< 10	> 250 °C	Cc1nc(N)c2c(n1)OC(C)(C)C(c1ccc([C@H]3CC[C@H](CC(=O)Cc4nn[nH]n4)CC3)cc1)=N2 [Example 2-148]
< 10	> 250 °C	Cc1nc(N)c2c(n1)OC(C)(C)C(c1ccc([C@H]3CC[C@H](Cc4nc(=O)o[nH]4)CC3)cc1)=N2 [Example 2-151]
